# From paper PMC7180728, “Novel Anthraquinone Compounds Inhibit Colon Cancer Cell Proliferation via the Reactive Oxygen Species/JNK Pathway” (Molecules, 2020)
# Experiments:
# JNK = experiment: Western blot, phosphorylated and total JNK; format: cell-based, human; settings: HCT116, western blot
# Text: To further elucidate the mechanism by which 8a inhibits proliferation and induces apoptosis of HCT116 cells, the levels of phosphorylated and total JNK protein were examined by western blot analysis. […] Phosphorylation of JNK activated by the ROS pathway results in overexpression of tumor suppressor factors, thereby inducing apoptosis. In addition, JNK phosphorylation is associated with ROS production. To determine whether ROS production contributes to JNK1/2 phosphorylation and its related mechanisms, we blocked 8a-induced ROS production in HCT116 cells and then analyzed the changes in JNK 1/2 phosphorylation by western blotting. […] Furthermore, pre-treatment of cells with NAC reduced the levels of p-JNK induced by 8a.
# The expression of signaling pathway-related proteins was detected by western blot analysis. Cell (1 × 10^6) were plated in 90-mm dishes and treated with 8a for 24 h. The cells were treated with NAC in the same way as in step 4.7. Resuspend the cells in Buffer A (1 mM EDTA, 1 mM PMSF, 0.28 μg/mL apotinin, 50 μg/mL leupeptin, 7 μg/mL pepstain A) and transferred to a 1 mL glass homogenizer and pull up and down 30 times in an ice bath. Cells were collected and centrifuged (1000 g × 10 min, 4 °C). The obtained supernatant and precipitate were the crude cytoplasm and mitochondria, respectively. The cytosolic fraction was transferred to an ultra-ion tube and centrifuged (100,000g × 1 hr, 4 °C), and the resulting supernatant was the purified cytosolic fraction. The mitochondrial pellet was resuspended in Buffer B (1mM EGTA, 1mM PMSF, 0.28 μg/mL apotinin, 50 μg/mL leupeptin, 7 μg/mL pepstain A), centrifuged (10,000g × 10 min, 4 °C), and repeated 3 times. The mitochondria pellet was lysed in cell lysate buffer (1% NP-40, 2 μg/mL aprotinin, 2 μg/mL leupeptin, 1mM EDTA, 1mM Na vanadate). Protein concentrations in the supernatant were determined by using a Minbio BCA protein assay kit. Protein were separated by SDS-PAGE and transferred to a PVDF membrane. The membrane was blocked, and incubated with primary detection antibodies overnight at 4 °C. […]
# [1] = test system: mitochondrial membrane potential of HCT116 cells; experiment: Mitochondrial membrane potential, JC-1 flow cytometry; format: cell-based, human; settings: 24 h
# Description: Decreased mitochondrial membrane potential is a hallmark of early cell apoptosis, and a decrease in mitochondrial membrane potential leads to the release of certain mitochondrial proteins, such as cytochrome c, which mediate apoptosis. Therefore, we examined changes in mitochondrial membrane potential by flow cytometry. HCT116 cells were treated with 8a (10 or 20 μg/mL) for 24 h and then stained with 2 μg/mL JC-1 for 30 min prior to flow cytometric analysis. Green /orange fluorescence ratio of JC-1, compare with control, is 200% and 494.4%, respectively (Figure 8E,F). […] During apoptosis, mitochondrial cytochrome C is released into the cytoplasm and triggers the activation cascade of caspase. HCT116 cells were collected after 8a treatment, cytoplasmic protein and mitochondrial protein were extracted. The levels of cytochrome c in the cytoplasm and mitochondria were detected by Western blotting. After treatment of HCT116 cells with 8a (10 or 20 μg/mL) for 24 h, cytoplasmic levels of cytochrome c increased, while the levels in the mitochondria decreased.
# The 1×10^4 cells were treated with different concentrations of 8a for 24 h. Cells were then incubated with 500 μL JC-1 ([…]) for 30 min at 37 °C in the dark. The level of mitochondrial membrane potential depolarization was measured by flow cytometry. Data were analyzed using the Cell Quest program (BD, New York, The United States).
# HCT116 cells = experiment: MTT cell viability with or without SP600125; format: cell-based, human; settings: 8a alone, 24 h, compared with the control
# Description: Furthermore, to further investigate whether activation of phosphorylated JNK affects cell viability, HCT116 was co-treated with 8a and SP600125 (JNK inhibitor), and the effect of phosphorylated JNK inactivation on HCT116 cell activity was examined by MTT. […] Following co-treatment with 8a and SP600126, the rate cell viability was 55%. The inhibitory proliferation activty of 8a were partially weakened by the usage of 5 μM Sp600125.
# Figure 9 The effect of 8a treatment on phosphorylated JNK and JNK expression levels. (A) Western blot analysis of phosphorylated JNK and JNK expression levels of in HCT116 cells treated with 20 μg/mL 8a for time-periods; (B) The expression levels of the phospho-JNK proteins were determined after treatment of HCT116 cells with 20 μg/mL 8a with or without NAC. Data represent the mean ± standard deviation of three independent experiments; (C) Grayscale analysis of the relative protein level of phosphorylated JNK. Data represent the mean ± standard deviation of three independent experiments. * p < 0.05; (D) MTT assay of HCT116 cells viability following treatment with 8a and SP600125 for 24 h.
# FHC = experiment: MTT cell proliferation assay, normal colorectal cells FHC; format: cell-based; settings: FHC normal human colorectal mucosa, 48 h
# Description: The effects of the synthesized amide anthraquinone derivatives on the proliferative activity of eight human cancerous cell lines (EC9706, MCF-7, SGC-7901, HepG2, QBC939, HeLa, HCT116 and SW480) in addition to two normal human cell lines (colorectal FHC and liver HL7702) were evaluated using the standard MTT assay.
# The human esophageal cancer cell line EC9706 was obtained from Cancer Hospital and Institute by Prof. Ming Rong Wang, Chinese Academy Medical of Sciences. The human colorectal carcinoma cell lines HCT116 and SW480, hepatoma cell line HepG2, cervical carcinoma cell line HeLa, breast cancer cell line MCF-7, gastric cancer cell line SGC-7901, cholangiocarcinoma cell line QBC939, normal fetal colon cell line FHC and liver cell line HL-7702 were obtained from the Cell Bank of the Shanghai Chinese Academy of Sciences. All cells were cultured in RPMI 1640 medium containing 100 U/mL penicillin and streptomycin and 10% fetal bovine serum and maintained at 37°C under a 5% CO2 atmosphere.
# We analyzed the inhibitory effects of eight anthraquinone-amino acid derivatives on the proliferation of eight tumor cell lines and two normal cell lines in vitro using MTT assays. Cells were added to a 96-well plate with (5,000 cells per well in 100 µL RPMI-1640 medium). Cells were treated with different concentrations (10–100 μg/mL) of 8a–8h for 48 h and then incubated with 20 μL MTT (5 mg/mL) for another 4 h at 37°C. DMSO (150 μL) was then added to each well to dissolve the formazan crystals. The absorbance of each well was read at 490 nm on a microtiter plate ELISA reader. The mean values were obtained from a minimum of three parallel experiments. IC50 values were calculated.
compound,measurement,setting,value
"CC(C)CC(NC(=O)c1ccc2c(c1[N+](=O)[O-])C(=O)c1ccccc1C2=O)C(=O)O (centres unmarked) [Compound 8a, N-[(9,10-dihydro-1-nitro-9,10-dioxo-2-anthracenyl)carbonyl-leucine]]",levels of phosphorylated JNK,"JNK; 20 μg/mL, time course",gradually increased with time
same,total JNK levels,"JNK; 20 μg/mL, time course",not altered
same,levels of p-JNK induced by 8a after NAC pre-treatment,JNK; 8a 20 μg/mL with NAC pre-treatment,reduced
same,"Green/orange fluorescence ratio of JC-1, compared with control",[1]; 10 μg/mL,200%
same,"Green/orange fluorescence ratio of JC-1, compared with control",[1]; 20 μg/mL,494.4%
same,mitochondrial membrane potential (in words),[1]; 10 or 20 μg/mL,decreased the mitochondrial membrane potential in a dose-dependent manner
same,cell viability,HCT116 cells,39%
same,IC50,FHC,> 1000 µg/mL
